Source: patent publication US6376670B1, “Quinoline-indole antimicrobial agents, uses and compositions related thereto” (Sepracor Inc., priority 1997, dated 2002)

Legend:
Assay in all cases: Determination of MIC values (BHI broth, 96 well microtiter plate)
Type in all cases: cell-based
Streptococcus pneumoniae = conditions: Streptococcus pneumoniae; S. pneu; BHI broth, overnight 37° C.; read-out: MIC S. pneu
Procedure, shortened: (§1)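 MIC was read as the lowest drug concentration without observable growth after roughly 16 h at 37 °C under about 7–10% CO2. Wells held BHI broth with compound at final 25–0.39 μg/mL (1:100 from DMSO dilutions). Each well was inoculated at 10^5–10^6 cells/mL.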

[1] = test system: methicillin-resistant Staphylococcus aureus (MRSA); conditions: Staphylococcus aureus, MRSA; BHI broth, overnight 37° C.; read-out: MIC MRSA
Procedure, shortened: as §1

[2] = test system: vancomycin-resistant Enterococcus spp. (VRE); conditions: Enterococcus, VRE, VREF; BHI broth, overnight 37° C.; read-out: MIC VREF
Procedure, shortened: as §1

Row | Compound | MIC (Streptococcus pneumoniae) | MIC [1] | MIC [2]
1 | NCc1ccc(CNC(=O)c2cc(-c3c[nH]c4ccc(Br)cc34)nc3ccc(C#CCNCCc4ccc(Cl)cc4)cc23)cc1 [Example 235] | < 7 µg/mL | < 7 µg/mL | < 7 µg/mL
2 | NCc1ccc(CNC(=O)c2cc(-c3c[nH]c4ccc(Br)cc34)nc3ccc(C#CCNC4CCCCC4)cc23)cc1 [Example 236] | < 7 µg/mL | < 7 µg/mL | < 7 µg/mL
3 | NCc1ccc(CNC(=O)c2cc(-c3c[nH]c4ccc(Br)cc34)nc3ccc(C#CCN4CCCC4)cc23)cc1 [Example 238] | < 7 µg/mL | < 7 µg/mL | < 25 µg/mL
4 | NCc1ccc(CNC(=O)c2cc(-c3c[nH]c4ccc(Br)cc34)nc3ccc(C#CCN4CCSCC4)cc23)cc1 [Example 239] | > 25 µg/mL | < 7 µg/mL | < 7 µg/mL
5 | NCc1ccc(CNC(=O)c2cc(-c3c[nH]c4ccc(Br)cc34)nc3ccc(C#CCN4CCc5ccccc5C4)cc23)cc1 [Example 240] | > 25 µg/mL | < 7 µg/mL | < 25 µg/mL
6 | NCc1ccc(CNC(=O)c2cc(-c3c[nH]c4ccc(Br)cc34)nc3ccc(C#CCN4CC=CCC4)cc23)cc1 [Example 241] | < 7 µg/mL | < 7 µg/mL | < 7 µg/mL
7 | NCc1cccc(CNC(=O)c2cc(-c3c[nH]c4ccc(Br)cc34)nc3ccc(C#CCN4CCCC4)cc23)c1 [Example 242] | < 7 µg/mL | < 7 µg/mL | < 25 µg/mL
8 | NCc1cccc(CNC(=O)c2cc(-c3c[nH]c4ccc(Br)cc34)nc3cc(Cl)c(I)cc23)c1 [Example 243] | < 7 µg/mL | < 7 µg/mL | < 7 µg/mL
9 | NCC1CCC(CNC(=O)c2cc(-c3c[nH]c4ccc(Br)cc34)nc3cc(Cl)c(I)cc23)CC1 (stereo not drawn) [Example 244] | < 7 µg/mL | < 7 µg/mL | < 7 µg/mL
10 | NCC1CCCC(CNC(=O)c2cc(-c3c[nH]c4ccc(Br)cc34)nc3cc(Cl)c(I)cc23)C1 (stereo not drawn) [Example 245] | < 7 µg/mL | < 7 µg/mL | < 7 µg/mL
11 | NCc1cccc(CNC(=O)c2cc(-c3c[nH]c4ccc(Br)cc34)nc3cc(Cl)cc(Cl)c23)c1 [Example 246] | < 7 µg/mL | < 7 µg/mL | < 7 µg/mL
12 | NCC1CCC(CNC(=O)c2cc(-c3c[nH]c4ccc(Br)cc34)nc3cc(Cl)cc(Cl)c23)CC1 (stereo not drawn) [Example 247] | < 7 µg/mL | < 7 µg/mL | < 7 µg/mL
13 | NCC1CCCC(CNC(=O)c2cc(-c3c[nH]c4ccc(Br)cc34)nc3cc(Cl)cc(Cl)c23)C1 (stereo not drawn) [Example 248] | < 7 µg/mL | < 7 µg/mL | < 7 µg/mL
14 | NCc1ccc(CNC(=O)c2cc(-c3c[nH]c4ccc(Br)cc34)nc3cc(I)ccc23)cc1 [Example 249] | < 7 µg/mL | < 7 µg/mL | < 7 µg/mL
15 | NCC1CCCC(CNC(=O)c2cc(-c3c[nH]c4ccc(Br)cc34)nc3cc(I)ccc23)C1 (stereo not drawn) [Example 250] | < 7 µg/mL | < 7 µg/mL | < 7 µg/mL
16 | NCC1CCC(CNC(=O)c2cc(-c3c[nH]c4ccc(Br)cc34)nc3cc(I)ccc23)CC1 (stereo not drawn) [Example 251] | < 7 µg/mL | < 7 µg/mL | < 7 µg/mL
17 | NCc1cccc(CNC(=O)c2cc(-c3c[nH]c4ccc(Br)cc34)nc3cc(I)ccc23)c1 [Example 252] | < 7 µg/mL | < 7 µg/mL | < 7 µg/mL
18 | NCc1ccc(CNC(=O)c2cc(-c3c[nH]c4ccc(Br)cc34)nc3ccc(F)cc23)cc1 [Example 253] | < 7 µg/mL | < 7 µg/mL | < 25 µg/mL
19 | NCc1ccc(CNC(=O)c2cc(-c3c[nH]c4ccc(Br)cc34)nc3cc(F)ccc23)cc1 [Example 254] | < 7 µg/mL | < 7 µg/mL | < 7 µg/mL
20 | NCc1ccc(CNC(=O)c2cc(-c3c[nH]c4ccc(Br)cc34)nc3c(F)cccc23)cc1 [Example 256] | < 7 µg/mL | < 7 µg/mL | < 7 µg/mL
21 | NCc1cccc(CNC(=O)c2cc(-c3c[nH]c4ccc(Br)cc34)nc3c(F)cccc23)c1 [Example 257] | < 7 µg/mL | < 7 µg/mL | < 7 µg/mL
22 | NCC1CCC(CNC(=O)c2cc(-c3c[nH]c4ccc(Br)cc34)nc3c(F)cccc23)CC1 (stereo not drawn) [Example 258] | < 7 µg/mL | < 7 µg/mL | < 7 µg/mL
23 | NCC1CCCC(CNC(=O)c2cc(-c3c[nH]c4ccc(Br)cc34)nc3c(F)cccc23)C1 (stereo not drawn) [Example 259] | < 7 µg/mL | < 7 µg/mL | < 7 µg/mL
24 | NCc1ccc(CNC(=O)c2cc(-c3c[nH]c4c(Cl)cccc34)nc3ccccc23)cc1 [Example 260] | < 25 µg/mL | < 25 µg/mL | < 25 µg/mL
25 | NCc1ccc(CNC(=O)c2cc(-c3c[nH]c4c(Br)cccc34)nc3ccccc23)cc1 [Example 261] | < 25 µg/mL | < 25 µg/mL | < 25 µg/mL
26 | NCc1ccc(CNC(=O)c2cc(-c3c[nH]c4ccc(Br)cc34)nc3cc(C#CCN4CCCCC4)ccc23)cc1 [Example 262] | < 7 µg/mL | < 7 µg/mL | < 7 µg/mL
